Where two headings read alike, the source gives them in different places.
Key:
Assay type in all cases: cell-based, human
HCT116 cells [1] = assay: Antiproliferative activity, Alamar Blue assay, HCT116 cells; set-up: key to HCT116 antiproliferative activity pIC50: pIC50 = -log IC50 (IC50: conc. reducing growth to 50% of control); conditions: for IC50: Homo sapiens, HCT-116, HCT116 cells, read-out: HCT116 antiproliferative activity pIC50 (converted)
Summary of the method: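 Readout is resazurin fluorescence (ex 540, em 590 nm) after a 4 h dye incubation at 37 °C, following 4-day compound treatment of HCT116 cells plated 24 h earlier. Results expressed as % viable cells versus untreated; pIC50 derived from probit-fitted IC50.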

PC-3 cells = assay: Antiproliferative activity, Alamar Blue assay, PC-3 cells; conditions: for IC50: Homo sapiens, PC-3, PC3 cells, read-out: PC3 antiproliferative activity pIC50 (converted)
Summary of the method: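 Resazurin-based fluorescence (540 nm ex/590 nm em) measured after 4-day compound treatment plus 24 hrs dye incubation at 37° C. Cells plated at 4.5×10^3 cells/ml, adhered 24 hr first. pIC50 from probit-derived IC50 on % viable cells versus untreated, triplicate wells.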

HCT116 cells [2] = assay: Mitotic arrest assay on HCT116 cells (phospho-histone H3 Ser10); conditions: Homo sapiens, HCT-116, HCT116 cells; lowest active dose; read-out: Mitotic arrest HCT116 LAD (converted)
Summary of the method: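 Read-out is imaging of phospho-histone H3 Ser10 (Alexa Fluor 488) with Hoechst nuclear counting, after 6 h compound exposure at 37 °C, DMSO ≤0.1%. LAD is the lowest dose at which the blank-corrected value over SD exceeds 5; triplicates, low-count wells excluded.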

Row | Structure (SMILES) | HCT116 antiproliferative activity pIC50 (HCT116 cells [1]; HCT116 cells) | PC3 antiproliferative activity pIC50 (PC-3 cells; PC3 cells) | IC50 (HCT116 cells [1]; Alamar Blue) | IC50 (PC-3 cells; Alamar Blue) | minimal effective concentration (HCT116 cells [2]) | IC50 (HCT116 cells [1]) | IC50 (PC-3 cells)
1 | CCc1cc2ccc(C(C)(C#N)Cc3nc(C#N)cc(OC)n3)cc2[nH]c1=O (single isomer, unassigned) [Compound 204] | 7.0 | 6.8 |  |  |  |  | 
2 | CCc1cc2c(OC)cc(C(C)(C#N)Cc3nc(OC)cc(OC)n3)cc2[nH]c1=O (single isomer, unassigned) [Compound 230] |  |  | 1.58 µM | 2 µM | 1 µM |  | 
3 | CCc1cc2ccc([C@@](C)(C#N)CCOc3ccc(C#N)cc3)cc2[nH]c1=O (single isomer, unassigned) [Compound 273] |  |  | 0.398 µM | 0.398 µM | 0.1 µM |  | 
4 | CCc1cc2ccc([C@](C)(C#N)CCOc3ccc(C#N)cc3)cc2[nH]c1=O (single isomer, unassigned) [Compound 275] |  |  | 10 µM | 10 µM | 10 µM |  | 
5 | CCc1cc2ccc([C@](C)(C#N)Cc3cccc(/C=C/S(C)(=O)=O)c3)cc2[nH]c1=O (single isomer, unassigned) [Compound 291] |  |  | 0.2 µM | 0.501 µM | 0.1 µM |  | 
6 | CCc1cc2ccc([C@@](C)(C#N)Cc3cccc(C#CCO)c3)cc2[nH]c1=O (single isomer, unassigned) [Compound 295] |  |  | 10 µM | 10 µM | 10 µM |  | 
7 | CCc1cc2ccc([C@](C)(C#N)Cc3cccc(C#CCO)c3)cc2[nH]c1=O (single isomer, unassigned) [Compound 296] |  |  | 0.126 µM | 0.1 µM | 0.1 µM |  | 
8 | CCc1cc2ccc([C@@](C)(C#N)Cc3cc(OC)nc(C)n3)cc2[nH]c1=O (single isomer, unassigned) [Compound 361] |  |  | 10 µM | 10 µM | 10 µM |  | 
9 | CCc1cc2ccc([C@](C)(C#N)Cc3cc(OC)nc(C)n3)cc2[nH]c1=O (single isomer, unassigned) [Compound 362] |  |  | 1 µM | 0.631 µM | 0.3 µM |  | 
10 | Cc1cc2ccc([C@@](C)(C#N)C3CCc4ccccc43)cc2[nH]c1=O (single isomer, unassigned) [Compound 385] |  |  | 3.98 µM | 10 µM | 10 µM |  | 
11 | Cc1cc2ccc([C@](C)(C#N)C3CCc4ccccc43)cc2[nH]c1=O (single isomer, unassigned) [Compound 386] |  |  | 0.2 µM | 0.2 µM | 0.1 µM |  | 
12 | CCc1cc2ccc(C(C)(C#N)Cc3cccc(OCCCN4CCNCC4)c3)cc2[nH]c1=O (centres unmarked) [Compound 25] |  |  |  |  | 1 µM | 3.16 µM | 6.31 µM
13 | CCc1cc2ccc(C(C#N)(Cc3ccccc3)c3ccc(C#N)cc3)cc2[nH]c1=O (centres unmarked) [Compound 26] |  |  |  |  | > 10 µM | 2.51 µM | > 10 µM
14 | CCc1cc2ccc(C(C#N)(Cc3ccccc3)c3ccccc3)cc2[nH]c1=O (centres unmarked) [Compound 27] |  |  |  |  | 3.16 µM | 3.98 µM | 6.31 µM
15 | CCc1cc2ccc(C(C#N)(Cc3ccccc3)C3CC3)cc2[nH]c1=O (centres unmarked) [Compound 29] |  |  |  |  | 1 µM | 1.26 µM | 5.01 µM
16 | CCc1cc2ccc(C(C#N)(Cc3ccccc3)C(C)C)cc2[nH]c1=O (centres unmarked) [Compound 30] |  |  |  |  | 3.16 µM | 1.26 µM | 6.31 µM
17 | CCCC(C#N)(Cc1ccccc1)c1ccc2cc(CC)c(=O)[nH]c2c1 (centres unmarked) [Compound 31] |  |  |  |  | 1 µM | 3.16 µM | 3.16 µM
18 | CCc1cc2ccc(C(C)(C#N)Cc3cc(OC)ccc3F)cc2[nH]c1=O (centres unmarked) [Compound 171] |  |  |  |  |  | 0.126 µM | 0.2 µM
19 | CCc1cc2ccc(C(C)(C#N)Cc3cccc(-c4ccc[nH]4)c3)cc2[nH]c1=O (centres unmarked) [Compound 176] |  |  | 5.01 µM | 5.01 µM | 1 µM |  | 
20 | CCc1cc2ccc(C(C)(C#N)Cc3cccc(CCS(C)(=O)=O)c3)cc2[nH]c1=O (centres unmarked) [Compound 178] |  |  | 3.98 µM | 10 µM | 3 µM |  | 

Row | Structure (SMILES) | HCT116 antiproliferative activity pIC50 (HCT116 cells [1]; HCT116 cells) | PC3 antiproliferative activity pIC50 (PC-3 cells; PC3 cells) | IC50 (HCT116 cells [1]; Alamar Blue) | IC50 (PC-3 cells; Alamar Blue) | minimal effective concentration (HCT116 cells [2]) | IC50 (HCT116 cells [1]) | IC50 (PC-3 cells)
21 | Cc1cc2ccc(C(C)(C#N)Cc3cccc(C=Cc4ccccc4)c3)cc2[nH]c1=O (centres unmarked) [Compound 179] |  |  | 2 µM | 7.94 µM | 1 µM |  | 
22 | CCc1cc2ccc(C(C)(C#N)Cc3cccc(/C=N/OC)c3)cc2[nH]c1=O (centres unmarked) [Compound 185] |  |  |  |  |  | 0.2 µM | 0.251 µM
23 | CCc1cc2ccc(C(C)(C#N)Cc3cccc(C(=N)NO)c3)cc2[nH]c1=O (centres unmarked) [Compound 186] |  |  | 3.98 µM | 5.01 µM | 3 µM |  | 
24 | Cc1cc2ccc(C(C)(C#N)Cc3cccc(Oc4ccc(F)cc4)c3)cc2[nH]c1=O (centres unmarked) [Compound 192] |  |  | 0.631 µM | 1.58 µM | 0.3 µM |  | 
25 | CCc1cc2ccc(C(C)(C#N)Cc3cccc(OCCCC#N)c3)cc2[nH]c1=O (centres unmarked) [Compound 194] |  |  |  |  |  | 0.501 µM | 0.631 µM
26 | CCc1cc2ccc(C(C)(C#N)Cc3cccc(OCCC#N)c3)cc2[nH]c1=O (centres unmarked) [Compound 195] |  |  | 0.251 µM | 0.251 µM | 0.1 µM |  | 
27 | C#CCOc1cccc(CC(C)(C#N)c2ccc3cc(CC)c(=O)[nH]c3c2)c1 (centres unmarked) [Compound 196] |  |  | 0.631 µM | 1 µM | 0.3 µM |  | 
28 | CCc1cc2ccc(C(C)(C#N)COCc3ccccc3)cc2[nH]c1=O (centres unmarked) [Compound 197] |  |  | 2 µM | 6.31 µM |  |  | 
29 | CCc1cc2ccc(C(C)(C#N)Cc3cccc(OCCS(C)(=O)=O)c3)cc2[nH]c1=O (centres unmarked) [Compound 201] |  |  |  |  |  | 2.51 µM | 5.01 µM
30 | CCc1cc2ccc(C(C)(C#N)Cc3nc(Cl)cc(OC)n3)cc2[nH]c1=O (centres unmarked) [Compound 202] |  |  | 0.2 µM | 0.251 µM | 0.1 µM |  | 
31 | CCc1cc2ccc(C(C)(C#N)Cc3nc(N(C)C)cc(N(C)C)n3)cc2[nH]c1=O (centres unmarked) [Compound 205] |  |  | 0.631 µM | 1.26 µM | 0.3 µM |  | 
32 | CCc1cc2ccc(C(C)(C#N)Cc3cccc(N4CCC(N(C)C)C4)n3)cc2[nH]c1=O (centres unmarked) [Compound 209] |  |  | 2 µM | 5.01 µM | 1 µM |  | 
33 | CCc1cc2ccc(C(C)(C#N)Cc3cccc(C#Cc4cncn4C)n3)cc2[nH]c1=O (centres unmarked) [Compound 217] |  |  | 5.01 µM | 6.31 µM | 3 µM |  | 
34 | CCc1cc2ccc(C(C)(C#N)Cc3cccc(C#N)[n+]3[O-])cc2[nH]c1=O (centres unmarked) [Compound 228] |  |  |  |  |  | 1.58 µM | 3.16 µM
35 | CCc1cc2ccc(C(C)(C#N)Cc3cccc(/C=N/O)c3)cc2[nH]c1=O (centres unmarked) [Compound 299] |  |  | 0.631 µM | 1 µM |  |  | 
36 | CCc1cc2ccc(C(C)(C#N)Cc3cc(C#N)nc(OC)c3)cc2[nH]c1=O (centres unmarked) [Compound 314] |  |  |  |  |  | 0.631 µM | 1 µM
37 | CCc1cc2ccc(C(C)(C#N)Cc3cc(C#N)nc(N(C)C)c3)cc2[nH]c1=O (centres unmarked) [Compound 325] |  |  |  |  |  | 0.794 µM | 1.26 µM
38 | CCc1cc2ccc(C(C)(C#N)Cc3ccc4c(c3)OC(F)(F)O4)cc2[nH]c1=O (centres unmarked) [Compound 346] |  |  |  | 3.16 µM | 1 µM |  | 
39 | CCc1cc2ccc(C(C)(C#N)Cc3c4ccccc4nn3C)cc2[nH]c1=O (centres unmarked) [Compound 347] |  |  |  |  |  | 3.16 µM | 3.98 µM
40 | CCc1cc2ccc(C(C)(C#N)Cc3cc(OC)nc(OC)c3)cc2[nH]c1=O (centres unmarked) [Compound 350] |  |  | 0.794 µM | 1.58 µM |  |  | 
